According to article PMC6264278, “Corydaline Inhibits Multiple Cytochrome P450 and UDP-Glucuronosyltransferase Enzyme Activities in Human Liver Microsomes” (Molecules, 2011):

Target: T1, UGT1A4 (Homo sapiens, UniProt P22310)
T1 construct: using pooled human liver microsomes; tissue BD Gentest Co. H161; host or cells: pooled human liver microsomes
T1 sequence (P22310 29-534): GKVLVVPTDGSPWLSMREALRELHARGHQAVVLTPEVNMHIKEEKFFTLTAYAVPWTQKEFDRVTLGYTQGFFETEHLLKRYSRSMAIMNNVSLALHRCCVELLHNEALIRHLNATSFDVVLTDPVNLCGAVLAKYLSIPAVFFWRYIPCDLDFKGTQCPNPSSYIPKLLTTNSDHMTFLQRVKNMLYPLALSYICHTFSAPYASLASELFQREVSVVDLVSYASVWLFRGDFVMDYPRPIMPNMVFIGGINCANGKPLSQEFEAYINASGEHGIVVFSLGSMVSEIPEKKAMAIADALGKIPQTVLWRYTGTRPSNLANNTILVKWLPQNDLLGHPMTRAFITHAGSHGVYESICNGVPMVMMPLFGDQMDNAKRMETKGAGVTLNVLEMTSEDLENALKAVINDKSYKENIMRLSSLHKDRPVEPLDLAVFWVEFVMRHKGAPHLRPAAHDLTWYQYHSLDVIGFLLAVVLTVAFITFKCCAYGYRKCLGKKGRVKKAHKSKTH
Assay: UGT1A4 trifluoperazine N-glucuronidation inhibition in pooled human liver microsomes
Assay type: in vitro ADME
Conditions: pooled human liver microsomes (H161), 5 μM trifluoperazine, no inhibition at 1,000 μM of corydaline
Procedure: The inhibitory potencies (IC50 values) of corydaline were also determined with UGT assays in the presence and absence of corydaline (final concentrations of 1–1,000 μM with acetonitrile concentration less than 0.5% v/v) using pooled human liver microsomes. 17β-Estradiol 3-glucuronidation, trifluoperazine glucuronidation, propofol glucuronidation, and azidothymidine glucuronidation activities were determined as probe activities for UGT1A1, UGT1A4, UGT1A9, and UGT2B7, respectively, using LC/MS/MS. Incubation mixtures were prepared in a total volume of 100 μL, as follows: Pooled human liver microsomes (0.2 mg/mL for 17β-estradiol, trifluoperazine and azidothymidine; 0.1 mg/mL for propofol), 2 mM UDPGA, 25 μg/mL alamethicin, 10 mM MgCl2, 50 mM tris buffer (pH 7.4), UGT-isoform specific probe substrate (20 μM 17β-estradiol for UGT1A1, 5 μM trifluoperazine for UGT1A4, 10 μM propofol for UGT1A9, or 100 μM azidothymidine for UGT2B7), and various concentrations of corydaline (1−1000 μM). […]
Glucuronides produced from UGT isoform-specific substrates were respectively determined by LC/MS/MS. […] Quantification was performed by SRM of the [M+H]^+ ion for trifluoperazine glucuronide and azidothymidine glucuronide or [M−H]^− for 17β-estradiol 3-glucuronide and propofol glucuronide and the related product ion for each metabolite. […]

With `COc1cc2c(cc1OC)C1C(C)c3ccc(OC)c(OC)c3CN1CC2` (centres unmarked) [Corydaline, 2,3,9,10-tetramethoxy-13-methyl-5,8,13,13a-tetrahydro-6H-isoquino[3,2-a]isoquinoline] the “IC50, UGT1A4 trifluoperazine N-glucuronidation” value was “not inhibited” and the “IC50, UGT1A4 trifluoperazine N-glucuronidation” value (listed as corydaline) was “No inhibition *”.
